# Assay results as given in patent US4118482A (priority 1977, dated 1978).
# What was measured:
# P388 leukemia = P388 leukemia in mice, treatment QD at days 1-9 (National Cancer Institute screen); type: in vivo; conditions: for 5 ILS* (increased life span) / 60 DAY "CURES" / SURVIAL TIME MEDIAN: QD days 1-9, P388 mice; for SURVIAL TIME MEDIAN: controls 10 days
# From the text: (§1) The National Cancer Institute conducted a screening test on samples of both Azetomicin I (3' prolyl, 3' azet) and Azetomicin II (3', 3' azet) as well as on Dactinomycin (3', 3' prolyl) that is also known as Actinomycin D or C1. The Azetomicin and Dactinomycin molecules are identical, with the exception of the 3' amino acid position on the peptides, wherein the 3' positions, in the case of Dactinomycin are both prolyl; in the case of the Azetomicin I are prolyl and azetidine-2-carboxyl; and in the cae of Azetomicin II are both azetidine-2-carboxyl.
# P 388 LEUKEMIA : QD AT DAYS 1-9 TREATMENT
# Rous sarcoma virus = test: Development of visible tumors in chicks infected with Rous sarcoma virus, single injection; type: in vivo; conditions: injected once; compared with untreated or saline injected controls
# Procedure: In another test, both Azetomicin I and Azetomicin II, were injected once into chicks infected with Rous sarcoma virus. The development of visible tumors was decreased by over 80% as compared with untreated or saline injected controls.
# ADVANCED P388 LEUKEMIA = test: Advanced P388 leukemia in mice, treatment Q4D x 3 at days 5, 9, 13; type: in vivo; conditions: 0.6 Mg/Kg/Inj., Q4D x 3 days 5, 9, 13, advanced P388
# From the text: as §1
# ADVANCED P388 LEUKEMIA : Q4D × 3 AT DAYS 5, 9, 13 TREATMENT
# [1] = test system: Bacillus subtilis, Staphylococcus aureus and Staphylococcus albus; test: Inhibition of bacterial growth (cross section of gram-positive and gram-negative bacteria); type: cell-based
# [2] = Toxicity per mg compared with Actinomicin D
# [3] = test system: advanced Ridgeway osteogenic sarcoma; test: Drug-induced regression of advanced Ridgeway osteogenic sarcoma in mice; type: in vivo
# Procedure: A sample of Azetomicin I was tested on mice infected with advanced Ridgeway osteogenic sarcoma. […] Data supplied by Dr. F. Schabel and his coworkers at Southern Research Institute has been collected in Table II below, with the results from Azetomicin I testing also noted: […]
# [4] = Storage stability in aqueous solution; type: physicochemical; conditions: 0°-25° C, pH range of 5-8, maintained in the dark
# Procedure: The major products of interest were determined to be Azetomicin I and Azetomycin II. They were stable after storage at 0°-25° C in aqueous solution in the pH range of 5-8 for at least 5 days when maintained in the dark.
# [5] = schedule day 12, Azetomicin I testing
substance,measurement,setting,value
Azetomicin I [AZETOMICIN-I],5 ILS* (increased life span),P388 leukemia; 0.05 Mg/Kg/Inj.,150%
same,"60 DAY ""CURES""",P388 leukemia; 0.05 Mg/Kg/Inj.,0%
same,SURVIAL TIME MEDIAN,P388 leukemia; 0.05 Mg/Kg/Inj.,25 days
same,5 ILS* (increased life span),P388 leukemia; 0.1 Mg/Kg/Inj.,155%
same,"60 DAY ""CURES""",P388 leukemia; 0.1 Mg/Kg/Inj.,0%
same,SURVIAL TIME MEDIAN,P388 leukemia; 0.1 Mg/Kg/Inj.,25.5 days
same,5 ILS* (increased life span),P388 leukemia; 0.2 Mg/Kg/Inj.,≥ 500%
same,"60 DAY ""CURES""",P388 leukemia; 0.2 Mg/Kg/Inj.,60%
same,SURVIAL TIME MEDIAN,P388 leukemia; 0.2 Mg/Kg/Inj.,≥ 60 days
same,activity compared with Dactinomycin (summary of Table I),"P388 leukemia; P388 leukemia mice, Table I",clearly greater activity than both
same,decrease of development of visible tumors,Rous sarcoma virus,over 80%
same,5 ILS* (increased life span),ADVANCED P388 LEUKEMIA,270%
same,"60 DAY ""CURES""",ADVANCED P388 LEUKEMIA,0
same,SURVIAL TIME MEDIAN,ADVANCED P388 LEUKEMIA; controls 10 days,37 days
same,activity against bacterial growth relative to Actinomicin D,[1],70%
same,toxicity/mg. compared with Actinomicin D,[2],substantially less toxic/mg.
same,animals with complete regression,"[3]; of 10 animals treated, 12th day only injection schedule",10 animals
same,"""CURES"" (Number/Total)",[3]; [5],10/10
same,REGRESSION 50+%-PARTIAL (Number/Total),[3]; [5],10/10
same,REGRESSION COMPLETE (Number/Total),[3]; [5],10/10
same,time stable after storage in aqueous solution,[4],at least 5 days
